Measured values: article PMC7070407, “Moringin, A Stable Isothiocyanate from Moringa oleifera, Activates the Somatosensory and Pain Receptor TRPA1 Channel In Vitro” (Molecules, 2020)

Molecular target: T1, rat TRPA1 (Rattus norvegicus, UniProt Q6RI86)
T1 construct: expressed in transfected cells; host or cells: HEK-293
Test: Elevation of intracellular Ca2+ (Fluo-4) in HEK-293 cells stably transfected with rat TRPA1; agonist and antagonist/desensitizing behaviour
Format: cell-based
Settings: AP18 at 50 μM, 5 min pre-incubation, rTRPA1-HEK-293
Protocol: Assay of rat TRPA1, TRPV2, TRPV3, TRPV4, TRPM8 or human TRPV1 mediated elevation of intracellular Ca^2+ in transfected HEK-293 cells are been performed as described. Briefly, human embryonic kidney (HEK-293) cells, stably transfected with rat TRPA1, TRPV2, TRPV3, TRPV4, TRPM8 or human TRPV1 (selected by Geneticin 600 μg mL^−1) or not transfected, were cultured in EMEM + 2 mM Glutamine + 1% Non-Essential Amino Acids (NEAA) + 10% FBS and maintained at 37 °C with 5% CO2. Stable transfections were checked by quantitative real-time polymerase chain reaction (PCR), quantitative real-time PCR was performed by an iCycler-iQ (Bio-Rad, Hercules, CA, USA) in a 20 μL reaction mixture containing the following: 10 μL iQ SYBR Green Supermix 2X (Bio-Rad), 20 ng of cDNA (calculated on the basis of the retro-transcribed RNA), and 330 nM for each primer. Optimized primers for SYBR Green analysis (and relative TaOpt) and optimum annealing temperatures were designed by Allele-Id software version 7.0 (Biosoft International, Palo Alto, CA, USA) and were synthesized (HPLC-purification grade) by MWG-Biotech AG (Ebersberg, Germany). Assays were performed in quadruplicate (maximal ΔCt of replicate samples, <0.5). Relative expression analysis, correct for PCR efficiency and normalized with respect to reference genes β-actin and glyceraldehyde 3-phosphate dehydrogenase, was performed by GENEX software (Bio-Rad). […] The day of the experiment the cells were loaded with Fluo-4 AM (4 μM in DMSO containing 0.02% Pluronic F-127) for 1 h in the dark at room temperature, rinsed and resuspended in Tyrode’s solution (145 mM NaCl, 2.5 mM KCl, 1.5 mM CaCl2, 1.2 mM MgCl2, 10 mM D-glucose, and 10 mM HEPES, pH 7.4), finally transferred to a quartz cuvette of a spectrofluorimeter (Perkin-Elmer LS50B; λEX = 488 nm, λEM = 516 nm) equipped with PTP-1 Fluorescence Peltier System (PerkinElmer Life and Analytical Sciences, Waltham, MA, USA) under continuous stirring. Cell fluorescence before and after the addition of various concentrations of test compounds and extracts were measured normalizing the effects against the response to ionomycin (4 µM). The values of the effect on [Ca^2+]i in HEK-293 cells not transfected are used as baseline and subtracted from the values obtained from transfected cells. […] The potency of the compounds (EC50 values) are determined as the concentration required to produce half-maximal increases in [Ca^2+]i. In TRPV3 assay TRPV3-expressing HEK293 cells were first sensitized with the structurally unrelated agonist 2-aminoethoxydiphenyl borate (100 μM). Antagonist/desensitizing behaviour is evaluated against the agonist of the TRP analyzed by adding the compounds directly in the quartz cuvette 5 min before stimulation of cells with the agonist. […] In order to assess functional antagonism of TRPA1 channels, AP18, 4-(4-chlorophenyl)-3-methyl-3-buten-2-one oxime […] Dose-response curve fitting (sigmoidal dose-response variable slope) and parameter estimation were performed with Graph-Pad Prism8® (GraphPad Software Inc., San Diego, CA, USA). All determinations were performed at least in triplicate.

T1 sequence (Q6RI86 whole entry): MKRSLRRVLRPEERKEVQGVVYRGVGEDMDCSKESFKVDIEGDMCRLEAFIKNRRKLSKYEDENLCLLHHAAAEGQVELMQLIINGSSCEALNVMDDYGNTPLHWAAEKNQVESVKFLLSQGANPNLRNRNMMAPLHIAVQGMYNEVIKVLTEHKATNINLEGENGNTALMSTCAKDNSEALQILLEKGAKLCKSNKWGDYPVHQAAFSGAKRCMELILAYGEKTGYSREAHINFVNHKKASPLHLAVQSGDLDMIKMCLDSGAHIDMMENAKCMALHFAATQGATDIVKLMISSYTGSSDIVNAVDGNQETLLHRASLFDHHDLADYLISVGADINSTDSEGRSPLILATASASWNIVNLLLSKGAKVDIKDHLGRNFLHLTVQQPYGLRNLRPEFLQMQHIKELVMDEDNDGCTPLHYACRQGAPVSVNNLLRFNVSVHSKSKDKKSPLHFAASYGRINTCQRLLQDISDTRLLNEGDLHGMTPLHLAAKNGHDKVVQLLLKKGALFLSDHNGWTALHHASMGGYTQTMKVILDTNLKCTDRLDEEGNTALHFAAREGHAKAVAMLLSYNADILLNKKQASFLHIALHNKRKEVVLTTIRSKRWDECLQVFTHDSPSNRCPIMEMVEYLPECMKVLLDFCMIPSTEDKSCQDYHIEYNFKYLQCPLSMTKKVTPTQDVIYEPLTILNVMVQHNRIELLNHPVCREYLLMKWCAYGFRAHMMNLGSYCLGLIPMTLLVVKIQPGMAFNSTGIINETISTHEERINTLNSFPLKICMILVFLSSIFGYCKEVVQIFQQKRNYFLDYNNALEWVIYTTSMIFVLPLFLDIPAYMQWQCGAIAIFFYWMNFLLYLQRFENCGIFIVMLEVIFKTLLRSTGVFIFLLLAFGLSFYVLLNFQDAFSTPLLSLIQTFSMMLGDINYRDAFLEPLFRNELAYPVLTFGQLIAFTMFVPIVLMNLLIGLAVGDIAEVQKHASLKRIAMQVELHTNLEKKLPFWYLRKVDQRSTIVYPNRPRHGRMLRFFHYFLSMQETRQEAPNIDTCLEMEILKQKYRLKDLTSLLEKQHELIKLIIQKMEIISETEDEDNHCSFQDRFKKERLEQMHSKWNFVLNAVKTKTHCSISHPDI

CC(=Cc1ccc(Cl)cc1)C(C)=NO [AP18, 4-(4-chlorophenyl)-3-methyl-3-buten-2-one oxime, reference compound]
Reduction of elevation of intracellular Ca2+ induced by AITC (100 μM): 68.6 ± 3.0%
Reduction of elevation of intracellular Ca2+ induced by moringin (10 μM): 64.1 ± 2.7%
